# According to US20230270764A1, “COMPOSITION COMPRISING CANNABINOIDS, TERPENES, AND FLAVONOIDS FOR TREATING DEPRESSION” (priority 2020, published 2023):
# Tests used:
# [1] = test system: hippocampal microglia; assay: Hippocampal microglia density and morphology (Iba-1 immunohistochemistry) in LPS-injected mice; format: in vivo
# Experimental: Given the suppressive effect of CBD on hippocampal microglia numbers in LPS-injected mice, the effect of Cannabidiolic acid (CBDA), as well as a combination of CBD with the flavonoid kaempferol, was examined to determine if they also produce a similar effect. Mice were firstly injected (i.p.) with CBDA or CBD/kaempferol combination, and 1 hr later were injected with LPS ([…] in 10 ml/kg saline). Brains were removed 24 hr later and prepared for immunohistochemistry, using the microglia marker Iba-1.
# [2] = test system: LPS-injected mice; assay: Open field test in the LPS-induced model of depression; format: in vivo; settings: for distance travelled in the open field compared with vehicle-treated groups: Example 9, 4-6 months-old male C57BL/6, i.p. 1 h before LPS 330 µg/kg, mg/kg: CBD 30, CBDA 1 or 5, CBD 30 plus THC 10, CBD 30 plus BCP 50
# Text: Animals were housed 2-3/cage, kept in an air-conditioned room (23+°C) and given ad libitum access to food and water. The mice were kept in a reversed light/dark cycle, with lights off from 7 a.m. to 7 p.m. All experiments were approved by the Hebrew University of Jerusalem Ethics Committee on Animal Care and Use. In preparation for the Sucrose Preference Test, mice were habituated 2-3 times to sucrose drinking, by exposing them overnight to two graduated tubes, one containing water and the other containing sucrose solution (1%, w/v). Water and sucrose consumption were measured, and sucrose preference was computed by dividing the amount of sucrose consumed by drinking (ml sucrose) by the total drinking volume (ml of sucrose + water). One day later, the weight of the mice and the food in their cages was weighed for later analysis of food consumption and body weight changes. Groups of mice were injected intraperitoneally (i.p.) with either vehicle (cremophor, ethanol and PBS, 1:1:18 (v/v/v)) or a cannabinoid-based formulation (by itself or with another cannabinoid, or a terpene or a flavonoid). One hour later, each of these groups was injected with LPS (330 µg/kg). All injections were administered at a dose of 10 ml/kg. Four hours following the LPS injection, mice were tested in the Open-Field Test. In this test, the measured locomotor activity reflects not only motor capacity, but particularly the innate motivation for spatial exploration (which increases the distance travelled) and the anxiety level (which reduces the distance travelled, in general, and particularly the distance and time spent in the center of the open field). Each subject was placed near one of the walls of a white 50 X 50 cm^2 arena with 40 cm high walls. The distance travelled (cm), the velocity of the movement (cm/second), the time spent (seconds), distance travelled (cm) in the center area of the arena, as well as the number of entries from the perimeter area into the center of the arena were automatically measured over a 4-minute period, using EthoVision XT video tracking system and software (Noldus, The Netherlands). Twenty-four hours after the LPS injection, mice were tested in the Social Exploration Test. In this test, the subject was placed in an observation cage containing a small metal wire mesh cage with a conspecific mouse inside it. Social exploration, defined as the time of near contact between the nose of the subject and the juvenile in the small cage was recorded for 4 min, using computerized in-house software. Sucrose preference was assessed, as described above, between 8 to 27 hr post LPS injection. Body weight and weight of the food were measured two hours before the LPS injection, and again after 24 hours, and the change in body weight and food consumption were calculated.
# This particular study was conducted in several experimental cohorts, and not all compounds and all measures were studied in all cohort. However, each cohort included a vehicle-treated group; therefore, the scores in each behavioral test were converted to % of mean vehicle-treated group in every individual cohort/experiment. Statistical comparisons were computed using SPSS software and consisted of one-way analyses of variance (ANOVA), followed by post-hoc comparisons with the Student-Newman-Keuls method. […]
Structure (SMILES),"hippocampal microglia density, CBD- vs Veh-treated LPS mice ([1]; young-adult male mice, CBD 30 mg/kg i.p. 3 consecutive days)",distance travelled in the open field compared with vehicle-treated groups [2],"distance travelled in open field vs vehicle-LPS group ([2]; Example 18, 7 months-old male mice, 3 daily i.p. injections, LPS 250 µg/kg, CLX 10 and 20 mg/kg or CBD 30 mg/kg by themselves)","number of entries into the center area vs vehicle-LPS group ([2]; Example 18, CBD 30 mg/kg by itself)","distance moved in the center of the open field vs vehicle-LPS group ([2]; Example 18, celecoxib 10, 20, 30 mg/kg or CBD 30 mg/kg by themselves)","distance travelled in the open field test ([2]; adult (6-9 months-old) and young adult (2.5-3 months old) female mice, acute CBD, saline or LPS)","distance traveled in the open field test, LPS-injected groups ([2]; adult (6-9 months-old) male mice, acute CBD 30 mg/kg)","LPS-induced decrease in distance moved in the open field test ([2]; young adult (2.5-3 months old) male mice, acute CBD)","attenuation of LPS effect on distance travelled in the open field test ([2]; young-adult male mice, CBD 30 mg/kg i.p. 3 consecutive days, last 1 hr before LPS 330 µg/kg)","hippocampal microglia density vs Vehicle ([1]; young-adult female mice, CBDA 1 mg/kg (not 0.5 or 5))","number of branch points of microglia processes vs Vehicle ([1]; young-adult female mice, CBDA 5 mg/kg)","microglia soma area and processes length ([1]; young-adult female mice, CBDA 0.5, 1, 5 mg/kg)","number of branch points of microglia processes vs Vehicle ([1]; young-adult male mice, CBDA 1 mg/kg)","hippocampal microglia density vs Vehicle ([1]; young-adult male mice, CBDA 1 mg/kg (not 5))","microglia soma area and processes length ([1]; young-adult male mice, CBDA 1, 5 mg/kg, CBD 25 and CBDA 1 mg/kg)","open field distance vs Vehicle-treated LPS-injected mice ([2]; young-adult female mice, CBDA 5 mg/kg (not 0.5 or 1))","open-field activity compared with the Veh-treated LPS group ([2]; adult female mice, kaempferol 60 mg/kg by itself or together with CBD 30 mg/kg)"
"C=C(C)[C@@H]1CCC(C)=C[C@H]1c1c(O)cc(CCCCC)cc1O [CBD, cannabidiol]",significantly reduced,significantly increased distance travelled,did not have significant effects,no significant effects,no significant effects,None of these parameters was influenced by treatment with CBD,significantly attenuated the suppressive effect of LPS,None of these parameters was influenced by treatment with CBD,did not reach statistical significance,–,–,–,–,–,–,–,–
"C=C(C)[C@@H]1CCC(C)=C[C@H]1c1c(O)cc(CCCCC)c(C(=O)O)c1O [CBDA, Cannabidiolic acid]",–,significantly increased distance travelled,–,–,–,–,–,–,–,significantly reduced,significantly increased,no significant difference,significantly increased,significantly reduced,no significant difference,significantly increased,–
O=c1c(O)c(-c2ccc(O)cc2)oc2cc(O)cc(O)c12 [kaempferol],–,–,–,–,–,–,–,–,–,–,–,–,–,–,–,–,significant elevation in open-field activity
